Results published in US20020173502A1, “Pharmaceutically active compounds” (priority 2001, published 2002).

Tests used:
[1] = In vivo interconversion of compound 1A and the compound of Preparation 1; conditions: no species or method printed
[2] = Hepatocyte incubation, metabolism followed by turbulent flow LC-MS-MS; type: in vitro ADME, human, dog; conditions: test compound 2 μM, sampled 0-180 minutes; transitions 439 to 84 (ketone) and 441 to 84 (alcohol)
Protocol: Hepatocyte incubations were used to determine the metabolism of both compound 1A according to the present invention and also the compound of Preparation 1. In such testing a marker compound was routinely included to ensure reproducible, active preparations were obtained.
Standard methodologies relating to hepatocyte testing can be found in: Carlille, D, Zomorodi, K, Houston, B; Drug Met. Dispos. 1997, 25(8), pp903-911, “Scaling factors to relate drug metabolic clearance in hepatic microsomes isolated hepatocytes, and the intact liver”.
Marker compound: 0.3 mM Propranolol in 100% DMSO.
Test materials (e.g. compound 1A) 1 mg/ml stocks or 3 mM in 100% DMSO.
Human hepatocytes used at a concentration of 2×10^6 cells/ml (per compound tested).
Dog hepatocytes used at a concentration of 1×10^6 cells/ml (per compound tested).
William's E buffer (1 pot of William's E powder from Sigma, 900 ml distilled water, 2.2 g sodium bicarbonate, 100 ml Foetal Bovine Serum) STOP solution (Midazolam internal standard plus acetonitrile: 600 μl of 10 μg/ml midazolam +30 ml acetonitrile). […]
Hepatocyte viability was determined using the Trypan Blue Exclusion method by gentle mixing of 350 μl KH buffer+100 μI Trypan Blue solution+50 μl cell suspension in an eppendorf tube. The cells were then counted using a haemocytometer. […] The number of viable (colourless) cells within 10 squares was recorded. […]

cGMP PDE5 = target: T1, cGMP PDE5 (Homo sapiens, UniProt O76074); assay: Phosphodiesterase (PDE) inhibitory activity, in vitro IC50; type: biochemical; conditions: read-out: IC50 as an inhibitor of cGMP PDE5
T1 construct: were obtained from human corpus cavernosum or human platelets; from tissue; host or cells: human corpus cavernosum or human platelets
Protocol: The compounds of the present invention are cGMP PDE5 inhibitors. In vitro PDE inhibitory activities against cyclic guanosine 3′,5′-monophosphate (CGMP) and cyclic adenosine 3′,5′-monophosphate (cAMP) phosphodiesterases were determined by measurement of their IC50 values (the concentration of compound required for 50% inhibition of enzyme activity).
The required PDE enzymes were isolated from a variety of sources, including human corpus cavernosum, human and rabbit platelets, human cardiac ventricle, human skeletal muscle and human and canine retina, essentially by the method of W. J. Thompson and M. M. Appleman (Biochem., 1971, 10, 311). In particular, the cGMP-specific PDE (PDE5) and the cGMP-inhibited cAMP PDE (PDE3) were obtained from human corpus cavernosum or human platelets; the cGMP-stimulated PDE (PDE2) was obtained from human corpus cavernosum and human platelets; the calcium/calmodulin (Ca/CAM)-dependent PDE (PDE1) from human cardiac ventricle; the cAMP-specific PDE (PDE4) from human skeletal muscle and human recombinant, expressed in SF9 cells; and the photoreceptor PDE (PDE6) from human or canine retina. Phosphodiesterases 7-11 were generated from full length human recombinant clones transfected into SF9 cells. […]

SMILES	conversion in vivo (pro-drug / metabolite relation) [1]	mass transition of the starting compound during hepatocyte incubation; product transition then appears [2]	IC50 (cGMP PDE5)
CCCCOc1ncc(C(C)=O)cc1-c1nc2c(CC)n(C3CN(CC)C3)nc2c(=O)[nH]1 [Preparation 1, 5-(5-acetyl-2-butoxy-3-pyridinyl)-3-ethyl-2-(1-ethyl-3-azetidinyl)-2,6-dihydro-7H-pyrazolo[4,3-d]pyrimidin-7-one, reference compound]	Compound 1A is a metabolite of the compound of Preparation 1	reduces to levels below the detection limit of the equipment	–
CCCCOc1ncc(C(C)O)cc1-c1nc2c(CC)n(C3CN(CC)C3)nc2c(=O)[nH]1 (centres unmarked) [Example 1A, 5-[2-Butoxy-5-(1-hydroxyethyl)-3-pyridinyl]-3-ethyl-2-(1-ethyl-3-azetidinyl)-2,6-dihydro-7H-pyrazolo[4,3-d]pyrimidin-7-one]	converted in vivo to provide the compound of Preparation 1	reduces to levels below the detection limit of the equipment	825 nM
